Assay results from patent publication US8563540B2, “Pyrido[3,2-d]pyrimidine PI3K delta inhibitor compounds and methods of use” (Genetech, Inc., priority 2010, dated 2013).

Assays:
[1] = system: production of CD69 by B lymphocytes in human whole blood activated with anti-human IgM; test: CD69 Whole Blood Assay; type: cell-based; settings: Lymphocyte, anti-IgM stimulated, CD69 positive of CD20 positive cells, 20 hours
Description: Human blood is obtained from healthy volunteers, with the following restrictions: 1 week drug-free, non-smokers.
Human whole blood—HWB (100 μl) is added to each well. After mixing the plates are incubated at 37° C., 5% CO2, 100% humidity for 30 minutes. Goat F(ab′)2 anti-human IgM (10 μl of a 500 μg/ml solution, 50 μg/ml final) is added to each well (except the no-stimulus wells) with mixing and the plates are incubated for an additional 20 hours. […] Include induced control, unstained and single stains for compensation adjustments and initial voltage settings. […] Results are initially analyzed by FACS analysis software (Flow Jo).

p110 alpha = molecular target: T1, p110 alpha (Homo sapiens, UniProt P42336); test: PI3K Isoform Inhibition Assay, p110 alpha (delta/alpha selectivity); settings: ratio of biochemical IC50 values
T1 construct: purchased Upstate Group, Millipore; Dundee, UK
Description: (§1) PI3K enzymatic activity was assayed by measuring the amount of product phosphatidylinositol […] (PIP3) formed from substrate 4,5 phosphatidylinositol 4,5-phosphate (PIP2) using a fluorescence polarization displacement assay. The decrease in fluorescence polarization of a fluorescent PIP3 probe is measured as it is displaced from a PIP3-binding protein GRP-1 detector by PI3K-catalyzed product. […] The kinase reactions were initiated by the addition of 40 ng/mL p110α/p85α, 300 ng/mL p110β/p85α, 40 ng/mL p110γ, or 40 ng/mL […] (Upstate Group, Millipore; Dundee, UK), and 10 μM PIP2 (Echelon Biosciences) to the wells. […] After 60 minutes of incubation at room temperature to allow equilibration of labeled and unlabeled PIP3 binding, the parallel and perpendicular components of the fluorescence emissions from each sample were measured at an excitation wavelength of 530 nm and an emission wavelength of 590 nm using an Envision fluorescent plate reader with a rhodamine filter (PerkinElmer Life and Analytical Sciences; Wellesley, Mass.). The assay is capable of detecting 0.1-2.0 μM PIP3 product. The IC50 values were obtained by fitting the dose-dependent inhibition data to a 4-parameter equation using Assay Explorer software (MDL, San Ramon, Calif.).
(§2) The Formula I compound was serially diluted in 100% DMSO. The kinase reaction was incubated for 1 h at room temperature, and the reaction was terminated by the addition of PBS. IC50 values were subsequently determined using sigmoidal dose-response curve fit (variable slope).
The same protocol may be used to establish IC50 values for p110α (alpha) PI3K binding. […]

p110 delta = molecular target: T2, p110 delta (Homo sapiens, UniProt O00329); test: PI3K Isoform Inhibition Assay, p110 delta; type: biochemical; settings: PI3K isoform inhibition assay of Example 901
T2 construct: purchased Upstate Group, Millipore; Dundee, UK
Description: as §1, §2
The four Class I PI 3-kinases are cloned into baculovirus vectors as follows: […]

T1 sequence (P42336 whole entry, canonical isoform): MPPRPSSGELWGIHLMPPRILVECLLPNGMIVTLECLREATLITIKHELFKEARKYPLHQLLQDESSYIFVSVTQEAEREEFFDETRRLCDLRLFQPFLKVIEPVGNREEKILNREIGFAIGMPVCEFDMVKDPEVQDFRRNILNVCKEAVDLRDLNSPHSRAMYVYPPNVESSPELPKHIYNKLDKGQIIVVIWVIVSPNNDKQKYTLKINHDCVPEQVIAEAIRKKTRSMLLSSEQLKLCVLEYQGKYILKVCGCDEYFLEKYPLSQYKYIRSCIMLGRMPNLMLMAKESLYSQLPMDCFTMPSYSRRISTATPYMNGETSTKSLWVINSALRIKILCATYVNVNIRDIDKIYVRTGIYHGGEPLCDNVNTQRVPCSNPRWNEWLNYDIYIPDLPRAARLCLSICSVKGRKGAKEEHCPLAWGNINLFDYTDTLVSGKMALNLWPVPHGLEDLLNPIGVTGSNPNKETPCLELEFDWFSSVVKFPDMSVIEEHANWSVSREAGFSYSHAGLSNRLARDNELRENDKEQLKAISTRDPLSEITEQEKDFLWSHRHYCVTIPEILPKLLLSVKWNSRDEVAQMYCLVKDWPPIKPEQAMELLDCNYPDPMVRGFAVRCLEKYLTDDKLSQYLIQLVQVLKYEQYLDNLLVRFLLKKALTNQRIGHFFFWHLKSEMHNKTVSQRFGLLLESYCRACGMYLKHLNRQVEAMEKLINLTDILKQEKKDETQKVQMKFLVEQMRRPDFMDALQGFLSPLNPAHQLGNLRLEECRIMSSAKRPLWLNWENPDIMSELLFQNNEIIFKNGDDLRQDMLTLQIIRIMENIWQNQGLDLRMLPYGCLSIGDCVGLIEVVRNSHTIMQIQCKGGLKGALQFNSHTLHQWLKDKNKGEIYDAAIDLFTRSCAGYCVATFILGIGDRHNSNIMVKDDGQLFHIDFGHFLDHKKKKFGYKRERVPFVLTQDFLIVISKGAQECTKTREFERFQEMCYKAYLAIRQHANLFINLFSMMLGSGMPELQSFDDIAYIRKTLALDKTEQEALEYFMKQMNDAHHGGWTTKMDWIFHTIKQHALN
T1 sequence (P27986 whole entry partner, canonical isoform): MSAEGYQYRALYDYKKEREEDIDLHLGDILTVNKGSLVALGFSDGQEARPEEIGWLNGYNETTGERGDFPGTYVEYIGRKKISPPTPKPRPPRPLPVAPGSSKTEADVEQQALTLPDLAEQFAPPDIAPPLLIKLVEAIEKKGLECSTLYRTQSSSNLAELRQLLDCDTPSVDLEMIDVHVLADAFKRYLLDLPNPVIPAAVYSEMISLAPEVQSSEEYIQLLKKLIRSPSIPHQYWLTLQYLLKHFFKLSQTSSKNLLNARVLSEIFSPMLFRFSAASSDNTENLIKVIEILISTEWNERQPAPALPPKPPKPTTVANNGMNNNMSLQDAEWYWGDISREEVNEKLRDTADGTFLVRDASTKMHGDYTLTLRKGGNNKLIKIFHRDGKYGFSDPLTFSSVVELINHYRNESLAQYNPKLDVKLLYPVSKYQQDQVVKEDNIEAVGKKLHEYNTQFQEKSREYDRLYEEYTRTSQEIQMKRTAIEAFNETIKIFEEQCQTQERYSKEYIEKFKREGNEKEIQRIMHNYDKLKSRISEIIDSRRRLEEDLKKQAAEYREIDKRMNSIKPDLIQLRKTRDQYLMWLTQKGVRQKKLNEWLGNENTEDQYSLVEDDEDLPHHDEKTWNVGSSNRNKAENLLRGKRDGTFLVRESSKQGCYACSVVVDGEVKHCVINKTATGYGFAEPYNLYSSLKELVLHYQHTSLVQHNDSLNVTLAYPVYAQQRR
T2 sequence (O00329 whole entry, canonical isoform): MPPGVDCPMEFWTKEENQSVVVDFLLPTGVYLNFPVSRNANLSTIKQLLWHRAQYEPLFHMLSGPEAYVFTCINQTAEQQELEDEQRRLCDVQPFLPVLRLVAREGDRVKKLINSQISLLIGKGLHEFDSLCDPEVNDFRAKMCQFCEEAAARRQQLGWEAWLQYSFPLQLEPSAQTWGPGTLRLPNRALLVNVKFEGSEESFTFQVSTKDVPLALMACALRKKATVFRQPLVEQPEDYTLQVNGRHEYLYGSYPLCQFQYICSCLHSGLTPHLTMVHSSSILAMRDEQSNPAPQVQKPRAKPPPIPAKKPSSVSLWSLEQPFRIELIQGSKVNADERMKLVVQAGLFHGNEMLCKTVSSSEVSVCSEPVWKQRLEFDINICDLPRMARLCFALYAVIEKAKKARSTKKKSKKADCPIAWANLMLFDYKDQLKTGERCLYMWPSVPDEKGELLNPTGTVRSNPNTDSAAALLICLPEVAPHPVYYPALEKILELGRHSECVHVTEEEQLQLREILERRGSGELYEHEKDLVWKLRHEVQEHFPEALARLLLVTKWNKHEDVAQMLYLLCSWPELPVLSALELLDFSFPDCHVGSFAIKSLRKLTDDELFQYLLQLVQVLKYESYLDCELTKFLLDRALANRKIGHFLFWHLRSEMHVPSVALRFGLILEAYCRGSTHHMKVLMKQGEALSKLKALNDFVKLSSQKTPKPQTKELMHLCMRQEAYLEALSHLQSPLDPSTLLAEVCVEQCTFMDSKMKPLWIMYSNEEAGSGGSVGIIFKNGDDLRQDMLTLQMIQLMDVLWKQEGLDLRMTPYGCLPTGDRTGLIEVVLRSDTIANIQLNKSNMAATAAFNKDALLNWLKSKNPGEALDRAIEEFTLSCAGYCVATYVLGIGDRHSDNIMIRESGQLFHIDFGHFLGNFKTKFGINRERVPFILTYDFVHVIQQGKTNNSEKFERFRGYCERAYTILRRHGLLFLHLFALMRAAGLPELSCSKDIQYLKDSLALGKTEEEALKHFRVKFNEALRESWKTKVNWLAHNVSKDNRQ
T2 sequence (P27986 whole entry partner, canonical isoform): as the sequence (P27986 whole entry partner, canonical isoform) above

Structure (SMILES)	IC50 [1]	IC50 p110 alpha/IC50 p110 delta (p110 alpha)	IC50 (p110 delta)
CO[C@@H](C)c1nc2ccccc2n1-c1nc(N2CCOCC2)c2nc(CN3CCC(C(C)(C)O)CC3)ccc2n1 [Compound 114, (S)-2-(1-((2-(2-(1-methoxyethyl)-1H-benzo[d]imidazol-1-yl)-4-morpholinopyrido[3,2-d]pyrimidin-6-yl)methyl)piperidin-4-yl)propan-2-ol]	12 nM	53	1.78 nM
CC(C)(O)C1CCN(Cc2ccc3nc(-n4ccc5ccccc54)nc(N4CCOCC4)c3n2)CC1 [Compound 128, 2-(1-((2-(1H-indol-1-yl)-4-morpholinopyrido[3,2-d]pyrimidin-6-yl)methyl)piperidin-4-yl)propan-2-ol]	–	26	81.9 nM
CC(C)c1nc2ccccc2n1-c1nc(N2CCOCC2)c2nc(CN3CC(C4CCOCC4)C3)ccc2n1 [Compound 113, 4-(2-(2-isopropyl-1H-benzo[d]imidazol-1-yl)-6-((3-(tetrahydro-2H-pyran-4-yl)azetidin-1-yl)methyl)pyrido[3,2-d]pyrimidin-4-yl)morpholine]	–	28.4	8.52 nM
CC(C)c1nc2ccccc2n1-c1nc(N2CCOCC2)c2nc(C(=O)N3CCC(C(C)(C)O)CC3)ccc2n1 [Compound 119, (4-(2-hydroxypropan-2-yl)piperidin-1-yl)(2-(2-isopropyl-1H-benzo[d]imidazol-1-yl)-4-morpholinopyrido[3,2-d]pyrimidin-6-yl)methanone]	–	15	87.8 nM

Continued by falling IC50 (p110 delta), values first:

IC50 [1]	IC50 p110 alpha/IC50 p110 delta (p110 alpha)	IC50 (p110 delta)	Structure (SMILES)
–	0.95	728 nM	COC1CN(c2cnc3c(N4CCOCC4)nc(N4CC(OC)C4)nc3c2)C1 [Compound 199, 4-(2,7-bis(3-methoxyazetidin-1-yl)pyrido[3,2-d]pyrimidin-4-yl)morpholine]
–	21	6.32 nM	CC(C)(O)C1CCN(Cc2ccc3nc(-c4cccc5[nH]ncc45)nc(N4CCOCC4)c3n2)CC1 [Compound 110, 2-(1-((2-(1H-indazol-4-yl)-4-morpholinopyrido[3,2-d]pyrimidin-6-yl)methyl)piperidin-4-yl)propan-2-ol]
83.8 nM	44	5.33 nM	CC(C)c1nc2ccccc2n1-c1nc(N2CCOCC2)c2nc(CN3CCC(C(C)(C)O)CC3)ccc2n1 [Compound 112, 2-(1-((2-(2-isopropyl-1H-benzo[d]imidazol-1-yl)-4-morpholinopyrido[3,2-d]pyrimidin-6-yl)methyl)piperidin-4-yl)propan-2-ol]
–	>350	2.82 nM	CC(C)(O)C1CCN(Cc2ccc3nc(-c4cccc5[nH]ccc45)nc(N4CCOCC4)c3n2)CC1 [Compound 109, 2-(1-((2-(1H-indol-4-yl)-4-morpholinopyrido[3,2-d]pyrimidin-6-yl)methyl)piperidin-4-yl)propan-2-ol]
–	45	2.31 nM	CC(F)(F)c1nc2ccccc2n1-c1nc(N2CCOCC2)c2nc(CN3CCC(C(C)(C)O)CC3)ccc2n1 [Compound 120, 2-(1-((2-(2-(1,1-difluoroethyl)-1H-benzo[d]imidazol-1-yl)-4-morpholinopyrido[3,2-d]pyrimidin-6-yl)methyl)piperidin-4-yl)propan-2-ol]
